Measured values reported in ChEMBL document CHEMBL1208782, “Synthesis and pharmacological validation of a novel series of non-steroidal FXR agonists” (Bioorg Med Chem Lett, 2010).

Key:
Format in all cases: functional, cell-based
[1] = target: T1, Retinoic acid receptor alpha (Homo sapiens) (UniProt P10276); assay: Agonist activity at RARalpha-LBD expressed in HEK293 cells assessed as Gal4-DBD interaction by cellular mammalian one hybrid assay relative to retinoic acid
T1 sequence (whole entry): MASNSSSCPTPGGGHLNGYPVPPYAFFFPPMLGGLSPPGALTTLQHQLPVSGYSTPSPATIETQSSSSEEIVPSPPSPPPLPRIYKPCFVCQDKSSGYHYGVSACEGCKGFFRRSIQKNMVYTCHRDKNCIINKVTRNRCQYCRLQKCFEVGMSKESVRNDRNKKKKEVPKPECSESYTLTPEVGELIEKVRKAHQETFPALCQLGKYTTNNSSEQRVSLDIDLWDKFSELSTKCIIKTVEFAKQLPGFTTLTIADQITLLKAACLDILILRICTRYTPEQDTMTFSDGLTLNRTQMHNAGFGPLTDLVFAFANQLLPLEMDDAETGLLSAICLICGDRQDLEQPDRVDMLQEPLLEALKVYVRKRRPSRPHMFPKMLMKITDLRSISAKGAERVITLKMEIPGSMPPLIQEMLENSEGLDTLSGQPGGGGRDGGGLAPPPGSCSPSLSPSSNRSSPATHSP

[2] = target: T2, Peroxisome proliferator-activated receptor alpha (Homo sapiens) (UniProt Q07869); assay: Agonist activity at PPARalpha-LBD expressed in HEK293 cells assessed as Gal4-DBD interaction by cellular mammalian one hybrid assay relative to GW-7467
T2 sequence (whole entry): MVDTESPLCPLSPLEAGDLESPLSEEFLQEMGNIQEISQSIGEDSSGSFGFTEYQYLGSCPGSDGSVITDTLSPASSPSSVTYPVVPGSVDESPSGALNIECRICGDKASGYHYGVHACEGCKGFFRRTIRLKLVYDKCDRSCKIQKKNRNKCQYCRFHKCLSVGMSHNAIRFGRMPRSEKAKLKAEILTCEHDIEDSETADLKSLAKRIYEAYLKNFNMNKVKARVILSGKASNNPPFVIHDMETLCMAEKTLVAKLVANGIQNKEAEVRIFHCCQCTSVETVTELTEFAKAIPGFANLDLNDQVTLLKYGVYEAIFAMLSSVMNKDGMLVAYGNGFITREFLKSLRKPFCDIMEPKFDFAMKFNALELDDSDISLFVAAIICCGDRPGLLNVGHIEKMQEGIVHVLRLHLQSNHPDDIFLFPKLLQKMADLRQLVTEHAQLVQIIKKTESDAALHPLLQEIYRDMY

[3] = target: Estrogen receptor beta (Homo sapiens, UniProt Q92731); assay: Agonist activity at ERbeta-LBD expressed in HEK293 cells assessed as Gal4-DBD interaction by cellular mammalian one hybrid assay relative to estradiol
Estrogen receptor beta, sequence (Q92731 whole entry, the tested form may be a part): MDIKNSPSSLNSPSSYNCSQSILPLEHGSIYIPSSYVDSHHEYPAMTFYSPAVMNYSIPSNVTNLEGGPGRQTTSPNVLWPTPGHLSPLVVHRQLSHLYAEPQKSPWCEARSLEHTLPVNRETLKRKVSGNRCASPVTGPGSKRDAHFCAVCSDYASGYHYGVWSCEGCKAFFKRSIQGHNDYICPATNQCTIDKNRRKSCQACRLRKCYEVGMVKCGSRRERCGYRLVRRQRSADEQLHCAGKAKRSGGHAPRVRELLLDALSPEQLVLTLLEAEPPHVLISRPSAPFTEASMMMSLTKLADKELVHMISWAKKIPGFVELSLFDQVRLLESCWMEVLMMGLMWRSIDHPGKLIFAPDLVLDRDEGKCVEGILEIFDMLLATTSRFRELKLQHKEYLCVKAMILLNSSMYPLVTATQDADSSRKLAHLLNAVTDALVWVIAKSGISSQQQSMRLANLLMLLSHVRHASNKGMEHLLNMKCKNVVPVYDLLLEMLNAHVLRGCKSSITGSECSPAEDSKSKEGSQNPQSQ

[4] = target: T3, Peroxisome proliferator-activated receptor gamma (Homo sapiens) (UniProt P37231); assay: Agonist activity at PPARgamma-LBD expressed in HEK293 cells assessed as Gal4-DBD interaction by cellular mammalian one hybrid assay relative to rosiglitazone
T3 sequence (whole entry): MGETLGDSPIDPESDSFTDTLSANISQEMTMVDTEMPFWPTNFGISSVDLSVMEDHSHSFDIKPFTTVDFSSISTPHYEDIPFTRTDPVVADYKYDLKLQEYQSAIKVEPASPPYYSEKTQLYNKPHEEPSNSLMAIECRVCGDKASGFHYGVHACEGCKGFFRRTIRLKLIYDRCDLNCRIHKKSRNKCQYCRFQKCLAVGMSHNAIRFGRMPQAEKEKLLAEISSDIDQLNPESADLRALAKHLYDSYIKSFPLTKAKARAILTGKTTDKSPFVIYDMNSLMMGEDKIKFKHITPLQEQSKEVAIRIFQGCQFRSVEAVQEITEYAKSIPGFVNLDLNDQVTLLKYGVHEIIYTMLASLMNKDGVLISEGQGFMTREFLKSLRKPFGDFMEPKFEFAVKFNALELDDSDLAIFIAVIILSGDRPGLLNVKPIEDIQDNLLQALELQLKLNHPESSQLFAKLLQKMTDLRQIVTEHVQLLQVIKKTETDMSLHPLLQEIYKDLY

[5] = target: T4, Retinoic acid receptor gamma (Homo sapiens, UniProt P13631); assay: Agonist activity at RARgamma-LBD expressed in HEK293 cells assessed as Gal4-DBD interaction by cellular mammalian one hybrid assay
T4 sequence (P13631 whole entry): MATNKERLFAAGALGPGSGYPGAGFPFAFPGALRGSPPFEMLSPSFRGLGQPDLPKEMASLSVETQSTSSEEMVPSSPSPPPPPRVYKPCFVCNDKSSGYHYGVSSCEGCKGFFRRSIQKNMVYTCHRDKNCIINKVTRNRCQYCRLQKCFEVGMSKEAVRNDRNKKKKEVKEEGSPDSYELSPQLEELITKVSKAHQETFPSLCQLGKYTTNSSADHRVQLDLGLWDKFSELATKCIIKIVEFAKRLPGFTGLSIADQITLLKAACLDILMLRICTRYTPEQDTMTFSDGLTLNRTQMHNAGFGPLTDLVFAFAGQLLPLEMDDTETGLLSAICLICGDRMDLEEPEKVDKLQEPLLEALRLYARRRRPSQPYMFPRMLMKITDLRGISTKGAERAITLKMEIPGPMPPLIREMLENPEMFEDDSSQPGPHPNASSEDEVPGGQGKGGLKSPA

| Efficacy [1] [%] | Efficacy [2] [%] | Efficacy [3] [%] | Efficacy [4] [%] | EC50 [5] [µM] | SMILES |
| --- | --- | --- | --- | --- | --- |
| 0 | 15 | 20 | 10 | > 10 | CN(Cc1cccc(C(=O)O)c1)c1ccc(OCc2c(-c3c(Cl)cccc3Cl)noc2C2CC2)nc1C(F)(F)F |
| 0 | 0 | 0 | 0 | > 10 | CN(Cc1ccc(C(=O)O)cc1)c1ccc(OCc2c(-c3c(Cl)cccc3Cl)noc2C2CC2)nc1C(F)(F)F |
| 0 | 0 | 0 | 0 | > 10 | CC(C)c1onc(-c2c(Cl)cccc2Cl)c1COc1ccc(N(C)Cc2ccc(C(=O)O)cc2)c(C(F)(F)F)n1 |
